1 compound from US20240148749A1 (priority 2021, published 2024) can be followed below.

This assay concerns CLP mice. The assay is described as follows: Survival after cecal ligation and puncture (CLP) model of sepsis. In kind it is in vivo, mouse. To be noted: CLP-MnTBAP mice, 24 h after CLP; MnTBAP 10 mg/kg IP every 12 h for 48 h. The method, then: A log-rank (Mantel-Cox) p value for trend was calculated.
We used peritonitis induced by CLP as a model of sepsis (Rittirsch et al., 2009). Briefly, animals were anesthetized with ketamine (Imalgene® 1000 100 mg/kg, Merial, France) and Xylazine (Rompun® 2% 20 mg/kg, Bayer, Germany) prior to surgery. After laparotomy, caecum was ligatured at the distal third with a 4.0 suture and the distal part was perforated twice with a 21 Gauge needle.
For use it is dissolved following the guidance provided by the manufacturer.
Clinical score was assessed 6, 12 and 24 hours and 21 days after CLP using a modified SmithKline Beecham, Harwell, Imperial College and Royal London Hospital phenotype assessment (SHIRPA) (Rogers et al., 1997) of the maximum score of fourteen. Weight, temperature and locomotor activity using an open field box were measured at the same time points. We determined survival rate twice a day for 21 days after CLP. The symptoms included in the a modified SmithKline Beecham, Harwell, Imperial College and Royal London Hospital phenotype assessment (SHIRPA) are tremors, periorbital exudates, piloerection, lethargy, vocalisation, positional passivity, no escapement to threat, long transfer arousal and diarrhoea. Each condition was scored from 0 to 2.
Experimental protocols were conducted in accordance with the French and European regulations on Animal Welfare and with Public Health Service recommendations. The experiments were performed on C57BL/6JRj mice (male and female) purchased from Janvier Laboratory. Mice were housed in cages in groups of 7, in a temperature (22±1.5° C.) and humidity-controlled environment, with a 12 h light/dark cycle. All animals used in the study were between 10 and 12 weeks old. Sample-size estimates for animal experiments were based on prior animal-modelling studies used in the Unit for the investigation of caecal ligation and puncture (CLP).
At the end, two groups were compared: CLP-Placebo, CLP-BMX-010. We determined survival rate twice a day for 4 days after CLP.”

`O=C(O)c1ccc(/C2=C3\C=CC(=N3)/C(c3ccc(C(=O)O)cc3)=c3/cc/c4[n]3[Mn]([Cl])[n]3c2ccc3/C(c2ccc(C(=O)O)cc2)=C2/C=CC(=N2)\C=4c2ccc(C(=O)O)cc2)cc1` [MnTBAP, Manganese (III) tetrakis (4-benzoic acid)porphyrin chloride]: the mice alive is reported as 66%.
